≈ marks a conversion by molar mass, not a printed value. Numbered stars: 1 amine (or outer) side, 2 acyl side, 3 side chain; on linkers, the order of the positions; unused ones are H or OH. Bridge positions count the residues as written; N and C are the ends. Square brackets hold non-standard residues; d marks the D form. Peptide text beside a SMILES is read from it. * marks the point of attachment. ξ: configuration not given here. X5 = CCCCCCCCc1ccc(C[C@@H](N[*:1])C(=O)[*:2])cc1; dPhe(4-CN) = N#Cc1ccc(C[C@@H](N)C(=O)O)cc1; ξHexahydromandeloyl = O=C(C(O)C1CCCCC1)*; Octanoyl(6-Me) = CCC(C)CCCCC(=O)*; dCha = N[C@H](CC1CCCCC1)C(=O)O; Thr(3ξ) = CC(O)[C@H](N)C(=O)O; X25 = CCCCO[C@@H](CCN)C(=O)*; X4 = CC(C)CC1CNCC(C(=O)*)C1; X21 = NCC(CC1CCCCC1)C(=O)*; Dab = NCC[C@H](N)C(=O)O; Dap = NC[C@H](N)C(=O)O; X18 = CCCCC(CCN)C(=O)*
Key:
Type in all cases: cell-based
[1] = system: Escherichia coli
How it was run: (§1)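 MIC (μg/mL) by susceptibility testing against up to nine strains per species, including strains with elevated Polymyxin MICs and resistant isolates.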

[2] = system: Pseudomonas aeruginosa
How it was run: as §1

[3] = system: Klebsiella pneumoniae
How it was run: as §1

[4] = system: Acinetobacter baumannii
How it was run: as §1

MIC E. coli 058 [1] [µg/mL]	MIC E. coli ATCC 25922 [1] [µg/mL]	MIC P. aeruginosa ATCC 27853 [2] [µg/mL]	MIC P. aeruginosa CCUG 59347 [2] [µg/mL]	MIC K. pneumoniae 065 [3] [µg/mL]	MIC K. pneumoniae ATCC 13882 [3] [µg/mL]	MIC A. baumanii ATCC BAA-747 [4] [µg/mL]	MIC A. baumanii NCTC 13424 [4] [µg/mL]	MIC E. coli 061 [1] [µg/mL]	MIC P. aeruginosa 068 [2] [µg/mL]	MIC P. aeruginosa 070 [2] [µg/mL]	MIC K. pneumoniae 063 [3] [µg/mL]	MIC A. baumanii 053 [4] [µg/mL]	MIC A. baumanii 056 [4] [µg/mL]	Structure (SMILES)	also measured
2 (≈ 1.78 µM)	0.5 (≈ 0.445 µM)	0.5 (≈ 0.445 µM)	1 (≈ 0.891 µM)	1 (≈ 0.891 µM)	0.5 (≈ 0.445 µM)	0.25 (≈ 0.223 µM)	0.5 (≈ 0.445 µM)	16 (≈ 14.3 µM)	2 (≈ 1.78 µM)	2 (≈ 1.78 µM)	16 (≈ 14.3 µM)	32 (≈ 28.5 µM)	16 (≈ 14.3 µM)	CC(C)C[C@@H]1NC(=O)[C@@H](CC2CCCCC2)NC(=O)[C@H](CCN)NC(=O)[C@@H](NC(=O)[C@H](CN)NC(=O)[C@@H](NC(=O)C(CN)CC2CCCCC2)C(C)O)CCNC(=O)[C@H]([C@@H](C)O)NC(=O)[C@H](CCN)NC(=O)[C@H](CCN)NC1=O (stereo partly drawn) [Example 31, 3-amino-2-(cyclohexylmethyl) propanoyl L-Thr-L-Dap-polymyxin [D-cyclohexylalanine]-6 heptapeptide] (X21-[Thr(3ξ)][Dap][Dab][Dab][dCha]L[Dab][Dab]T; lactam 3-C)	–
8 (≈ 6.61 µM)	0.06 (≈ 0.0496 µM)	0.5 (≈ 0.413 µM)	0.5 (≈ 0.413 µM)	16 (≈ 13.2 µM)	0.25 (≈ 0.207 µM)	0.125 (≈ 0.103 µM)	0.5 (≈ 0.413 µM)	–	–	–	–	–	–	CC(C)C[C@@H]1NC(=O)[C@@H](CC2CCCCC2)NC(=O)[C@H](CCN)NC(=O)[C@@H](NC(=O)[C@H](CCN)NC(=O)[C@@H](NC(=O)[C@H](CCN)NC(=O)C(O)C2CCCCC2)C(C)O)CCNC(=O)[C@H]([C@@H](C)O)NC(=O)[C@H](CCN)NC(=O)[C@H](CCN)NC1=O (some centres unmarked) [Example 37] (ξHexahydromandeloyl-[Dab][Thr(3ξ)][Dab][Dab][Dab][dCha]L[Dab][Dab]T; lactam 4-C)	MIC E. coli NCTC 9001 [1]: 0.06 µg/mL (≈ 0.0496 µM)
8 (≈ 7.2 µM)	0.125 (≈ 0.113 µM)	0.5 (≈ 0.45 µM)	0.5 (≈ 0.45 µM)	2 (≈ 1.8 µM)	0.25 (≈ 0.225 µM)	0.06 (≈ 0.054 µM)	0.125 (≈ 0.113 µM)	16 (≈ 14.4 µM)	4 (≈ 3.6 µM)	8 (≈ 7.2 µM)	16 (≈ 14.4 µM)	>64	64 (≈ 57.6 µM)	CCCCC(CCN)C(=O)N[C@H](C(=O)N[C@@H](CCN)C(=O)N[C@H]1CCNC(=O)[C@H]([C@@H](C)O)NC(=O)[C@H](CCN)NC(=O)[C@H](CCN)NC(=O)[C@H](CC(C)C)NC(=O)[C@@H](CC2CCCCC2)NC(=O)[C@H](CCN)NC1=O)C(C)O (stereo partly drawn) [Example 40, 2-(2-aminoethyl) hexanoyl [D-cyclohexylalanine]-6 nonapeptide.] (X18-[Thr(3ξ)][Dab][Dab][Dab][dCha]L[Dab][Dab]T; lactam 3-C)	MIC E. coli NCTC 9001 [1]: 0.03 µg/mL (≈ 0.027 µM)

More lines, now with the values behind:

Structure (SMILES)	MIC E. coli 058 [1] [µg/mL]	MIC E. coli ATCC 25922 [1] [µg/mL]	MIC P. aeruginosa ATCC 27853 [2] [µg/mL]	MIC P. aeruginosa CCUG 59347 [2] [µg/mL]	MIC K. pneumoniae 065 [3] [µg/mL]	MIC K. pneumoniae ATCC 13882 [3] [µg/mL]	MIC A. baumanii ATCC BAA-747 [4] [µg/mL]	MIC A. baumanii NCTC 13424 [4] [µg/mL]	MIC E. coli 061 [1] [µg/mL]	MIC P. aeruginosa 068 [2] [µg/mL]	MIC P. aeruginosa 070 [2] [µg/mL]	MIC K. pneumoniae 063 [3] [µg/mL]	MIC A. baumanii 053 [4] [µg/mL]	MIC A. baumanii 056 [4] [µg/mL]	also measured
CCC(CC)CC(CCN)C(=O)N[C@H](C(=O)N[C@@H](CCN)C(=O)N[C@H]1CCNC(=O)[C@H]([C@@H](C)O)NC(=O)[C@H](CCN)NC(=O)[C@H](CCN)NC(=O)[C@H](CC(C)C)NC(=O)[C@@H](CC2CCCCC2)NC(=O)[C@H](CCN)NC1=O)[C@@H](C)O (single isomer, unassigned; isomer 2) [Example 92, 2-(2-aminoethyl)-4-ethylhexanoyl polymyxin [D-cyclohexylalanine]-6 nonapeptide. Isomer 2]	4 (≈ 3.51 µM)	0.06 (≈ 0.0527 µM)	0.25 (≈ 0.22 µM)	1 (≈ 0.878 µM)	8 (≈ 7.03 µM)	0.25 (≈ 0.22 µM)	0.125 (≈ 0.11 µM)	0.125 (≈ 0.11 µM)	–	–	–	–	–	–	–
CCCCCCCCc1ccc(C[C@H]2NC(=O)[C@H](CCN)NC(=O)[C@@H](NC(=O)[C@H](CN)NC(=O)[C@@H](NC(=O)C3CNCC(CC(C)C)C3)C(C)O)CCNC(=O)[C@H]([C@@H](C)O)NC(=O)[C@H](CCN)NC(=O)[C@H](CCN)NC(=O)[C@H](CC(C)C)NC2=O)cc1 (some centres unmarked) [Example 23] (X4-[Thr(3ξ)][Dap][Dab][Dab][X5]L[Dab][Dab]T; lactam 3-C)	2 (≈ 1.63 µM)	2 (≈ 1.63 µM)	2 (≈ 1.63 µM)	–	2 (≈ 1.63 µM)	–	2 (≈ 1.63 µM)	–	2 (≈ 1.63 µM)	4 (≈ 3.26 µM)	4 (≈ 3.26 µM)	8 (≈ 6.51 µM)	2 (≈ 1.63 µM)	1 (≈ 0.814 µM)	MIC E. coli 059 [1]: 2 µg/mL (≈ 1.63 µM); MIC E. coli 060 [1]: 2 µg/mL (≈ 1.63 µM); MIC K. pneumoniae 062 [3]: 4 µg/mL (≈ 3.26 µM); MIC K. pneumoniae 064 [3]: 4 µg/mL (≈ 3.26 µM); MIC K. pneumoniae 066 [3]: 2 µg/mL (≈ 1.63 µM); MIC K. pneumoniae 067 [3]: 4 µg/mL (≈ 3.26 µM); MIC K. pneumoniae ATCC 4352 [3]: 1 µg/mL (≈ 0.814 µM)
CCC(C)CCCCC(=O)N[C@@H](CCN)C(=O)N[C@H](C(=O)N[C@@H](CCN)C(=O)N[C@H]1CCNC(=O)[C@H]([C@@H](C)O)NC(=O)[C@H](CCN)NC(=O)[C@H](CCN)NC(=O)[C@H](CC(C)C)NC(=O)[C@@H](Cc2ccc(C#N)cc2)NC(=O)[C@H](CCN)NC1=O)C(C)O (stereo partly drawn) [Example 24, Polymyxin B[D-(4-cyano)Phe]-6] ({Octanoyl(6-Me)}-[Dab][Thr(3ξ)][Dab][Dab][Dab][dPhe(4-CN)]L[Dab][Dab]T; lactam 4-C)	4 (≈ 3.26 µM)	0.125 (≈ 0.102 µM)	0.25 (≈ 0.203 µM)	0.5 (≈ 0.407 µM)	8 (≈ 6.51 µM)	–	0.25 (≈ 0.203 µM)	0.25 (≈ 0.203 µM)	16 (≈ 13 µM)	32 (≈ 26 µM)	>64	64 (≈ 52.1 µM)	>64	>64	MIC K. pneumoniae ATCC 4352 [3]: 0.125 µg/mL (≈ 0.102 µM)
CCCCCCCCc1ccc(C[C@H]2NC(=O)[C@H](CCN)NC(=O)[C@@H](NC(=O)[C@H](CN)NC(=O)[C@@H](NC(=O)[C@@H](N)CCN)C(C)O)CCNC(=O)[C@H]([C@@H](C)O)NC(=O)[C@H](CCN)NC(=O)[C@H](CCN)NC(=O)[C@H](CC(C)C)NC2=O)cc1 (stereo partly drawn) [Example 29, L-Dab-L-Thr-L-Dap-polymyxin [D-(4-octyl Phe)]-6 heptapeptide] (H-[Dab][Thr(3ξ)][Dap][Dab][Dab][X5]L[Dab][Dab]T; lactam 4-C)	32 (≈ 27.6 µM)	2 (≈ 1.72 µM)	4 (≈ 3.44 µM)	8 (≈ 6.89 µM)	>64	–	4 (≈ 3.44 µM)	4 (≈ 3.44 µM)	–	–	–	–	–	–	–
CCCCO[C@@H](CCN)C(=O)N[C@H](C(=O)N[C@@H](CN)C(=O)N[C@H]1CCNC(=O)[C@H]([C@@H](C)O)NC(=O)[C@H](CCN)NC(=O)[C@H](CCN)NC(=O)[C@H](CC(C)C)NC(=O)[C@@H](CC2CCCCC2)NC(=O)[C@H](CCN)NC1=O)C(C)O (stereo partly drawn) [Example 46, (S)-4-amino-2-butoxybutanoyl L-Thr-L-Dap-polymyxin [D-cyclohexylalanine]-6 heptapeptide.] (X25-[Thr(3ξ)][Dap][Dab][Dab][dCha]L[Dab][Dab]T; lactam 3-C)	8 (≈ 7.19 µM)	0.125 (≈ 0.112 µM)	0.5 (≈ 0.449 µM)	0.5 (≈ 0.449 µM)	2 (≈ 1.8 µM)	0.25 (≈ 0.225 µM)	0.125 (≈ 0.112 µM)	0.125 (≈ 0.112 µM)	–	16 (≈ 14.4 µM)	32 (≈ 28.8 µM)	>64	>64	>64	–

— patent publication US12146004B2, “Polymyxin compounds and uses thereof” (priority 2014, dated 2024)
